Laboratory results: patent publication US20160296499A1, “Spiroindoline Antiparasitic Derivatives” (ZOETIS SERVICES LLC, priority 2013, published 2016)
Like-named read-outs stand apart in the source and are kept apart here.

Columns and labels:
Haemonchus contortus L3 = assay: Haemonchus contortus, Larvae Stage 3 (HcL3) In Vitro Assay; settings: Haemonchus contortus
[1] = target: T1, bovine vesicular acetylcholine transporter (VAChT) (Bos taurus, UniProt E1BK36); assay: Radioligand Binding Assay; settings: Bovine binding Ki, CHO-K1 membranes with recombinant bovine VAChT, [3H]Compound X6 0.3 nM
T1 sequence (E1BK36 1-524): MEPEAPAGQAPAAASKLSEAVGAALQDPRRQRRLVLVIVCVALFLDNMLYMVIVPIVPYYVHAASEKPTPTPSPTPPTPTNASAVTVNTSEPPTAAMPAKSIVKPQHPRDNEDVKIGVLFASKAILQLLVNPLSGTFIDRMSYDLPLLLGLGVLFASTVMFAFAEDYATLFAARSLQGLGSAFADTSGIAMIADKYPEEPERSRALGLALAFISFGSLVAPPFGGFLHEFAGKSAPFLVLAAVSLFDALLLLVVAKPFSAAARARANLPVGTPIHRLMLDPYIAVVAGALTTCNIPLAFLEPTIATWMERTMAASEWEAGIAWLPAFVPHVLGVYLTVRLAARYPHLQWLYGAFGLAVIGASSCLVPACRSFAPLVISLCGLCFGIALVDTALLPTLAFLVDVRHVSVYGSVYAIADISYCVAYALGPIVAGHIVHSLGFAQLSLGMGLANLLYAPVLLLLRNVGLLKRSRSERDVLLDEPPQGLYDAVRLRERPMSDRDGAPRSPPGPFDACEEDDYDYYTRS

[2] = system: Dirofilaria immitis microfilariae; assay: Dirofilaria immitis, Microfilariae (DiMF) In Vitro Assay; settings: Dirofilaria immitis
[3] = 96 hours, 37° C., read-out: HcL3 MEC
[4] = 96 h, read-out: HcL3 MEC, Minimal Effective Concentration whereby worm motility is inhibited by approximately 70%, 37° C., tested 0.001-100 μM
[5] = 72 h, read-out: Di MF, MEC, decrease in microfilariae motility by visual assessment, curve starting at 100 μM

SMILES | minimal effective concentration (Haemonchus contortus L3; [3]) | Ki [1] | minimal effective concentration ([2]; 72 hours, read-out: Di MF) | minimal effective concentration (Haemonchus contortus L3; [4]) | minimal effective concentration [2, 5]
O=C(NCc1ccnc(Cl)c1)N1CC2(CCN(C/C=C/c3ccc(F)cc3)CC2)c2cc(C(F)(F)F)ccc21 [Example 154, (E)-N-((2-chloropyridin-4-yl)methyl)-1′-(3-(4-fluorophenyl)allyl)-5-(trifluoromethyl)spiro[indoline-3,4′-piperidine]-1-carboxamide] | 6.6 µM | 283 nM | 2.8 µM |  | 
Cc1c(F)ccc2c1C1(CCN(C/C=C/c3ccc(Cl)cc3)CC1)CN2C(=O)NCc1ccnc(Cl)c1 [Example 155, (E)-1′-(3-(4-chlorophenyl)allyl)-N-((2-chloropyridin-4-yl)methyl)-5-fluoro-4-methylspiro[indoline-3,4′-piperidine]-1-carboxamide] |  | 74.8 nM |  | 7.3 µM | 3.3 µM
O=C(NCc1ccnc(Cl)c1)N1CC2(CCN(C/C=C/c3ccc(Cl)cc3)CC2)c2c(Br)cccc21 [Example 156, (E)-4-bromo-1′-(3-(4-chlorophenyl)allyl)-N-((2-chloropyridin-4-yl)methyl)spiro[indoline-3,4′-piperidine]-1-carboxamide] |  | 71.5 nM |  | 7.8 µM | 5.7 µM
N#Cc1ccc(/C=C/CN2CCC3(CC2)CN(C(=O)NCc2ccnc(Cl)c2)c2ccc(F)c(Cl)c23)cc1 [Example 157, (E)-4-chloro-N-((2-chloropyridin-4-yl)methyl)-1′-(3-(4-cyanophenyl)allyl)-5-fluorospiro[indoline-3,4′-piperidine]-1-carboxamide] |  | 22.7 nM |  | 8.1 µM | 11 µM
O=C(NCc1ccnc(Cl)c1)N1CC2(CCN(C/C=C/c3ccc(F)cc3)CC2)c2c1ccc(F)c2Cl [Example 158, (E)-4-chloro-N-((2-chloropyridin-4-yl)methyl)-5-fluoro-1′-(3-(4-fluorophenyl)allyl)spiro[indoline-3,4′-piperidine]-1-carboxamide] | 9.9 µM | 54.8 nM | 4.3 µM |  | 
O=C(NCc1ccnc(Cl)c1)N1CC2(CCN(C/C=C/c3ccc(Cl)cc3)CC2)c2c1ccc(OC(F)(F)F)c2Cl [Example 159, (E)-4-chloro-1′-(3-(4-chlorophenyl)allyl)-N-((2-chloropyridin-4-yl)methyl)-5-(trifluoromethoxy)spiro[indoline-3,4′-piperidine]-1-carboxamide] | 10 µM | 565 nM | 24 µM |  | 
O=C(NCc1ccnc(Cl)c1)N1CC2(CCN(C/C=C/c3ccc(Cl)cc3)CC2)c2cc(C(F)(F)F)ccc21 [Example 160, (E)-1′-(3-(4-chlorophenyl)allyl)-N-((2-chloropyridin-4-yl)methyl)-5-(trifluoromethyl)spiro[indoline-3,4′-piperidine]-1-carboxamide] | 10 µM | 226 nM | 10 µM |  | 
O=C(NCc1ccnc(Cl)c1)N1CC2(CCN(C/C=C/c3ccc(F)cc3)CC2)c2c(Cl)cc(Cl)cc21 [Example 161, (E)-4,6-dichloro-N-((2-chloropyridin-4-yl)methyl)-1′-(3-(4-fluorophenyl)allyl)spiro[indoline-3,4′-piperidine]-1-carboxamide] |  | 259 nM |  | 10 µM | 10 µM
CS(=O)(=O)c1ccc2c(c1)N(C(=O)NCc1ccnc(Cl)c1)CC21CCN(C/C=C/c2ccc(Cl)cc2)CC1 [Example 162, (E)-1′-(3-(4-chlorophenyl)allyl)-N-((2-chloropyridin-4-yl)methyl)-6-(methylsulfonyl)spiro[indoline-3,4′-piperidine]-1-carboxamide] |  | 23.4 nM |  | 10 µM | 10 µM
O=C(NCc1ccnc(Cl)c1)N1CC2(CCN(C/C=C/c3ccc(F)cc3)CC2)c2cc(OC(F)(F)F)ccc21 [Example 163, (E)-N-((2-chloropyridin-4-yl)methyl)-1′-(3-(4-fluorophenyl)allyl)-5-(trifluoromethoxy)spiro[indoline-3,4′-piperidine]-1-carboxamide] | 10.1 µM | 554 nM | 2.5 µM |  | 
O=C(NCc1ccnc(Cl)c1)N1CC2(CCN(C/C=C/c3ccc(C(F)(F)F)cc3)CC2)c2c1ccc(F)c2Cl [Example 164, (E)-4-chloro-N-((2-chloropyridin-4-yl)methyl)-5-fluoro-1′-(3-(4-(trifluoromethyl)phenyl)allyl)spiro[indoline-3,4′-piperidine]-1-carboxamide] |  | 311 nM |  | 12.4 µM | 5.3 µM
N#Cc1cccc2c1C1(CCN(C/C=C/c3ccc(Cl)cc3)CC1)CN2C(=O)NCc1ccnc(Cl)c1 [Example 165, (E)-1′-(3-(4-chlorophenyl)allyl)-N-((2-chloropyridin-4-yl)methyl)-4-cyanospiro[indoline-3,4′-piperidine]-1-carboxamide] |  | 38.4 nM |  | 16.7 µM | 8.3 µM
N#Cc1c(F)ccc2c1C1(CCN(C/C=C/c3ccc(Cl)cc3)CC1)CN2C(=O)NCc1ccnc(Cl)c1 [Example 166, (E)-1′-(3-(4-chlorophenyl)allyl)-N-((2-chloropyridin-4-yl)methyl)-4-cyano-5-fluorospiro[indoline-3,4′-piperidine]-1-carboxamide] |  | 43.5 nM |  | 23.5 µM | 1.5 µM
COc1ccc2c(c1)C1(CCN(C/C=C/c3ccc(Cl)c(Cl)c3)CC1)CN2C(=O)NCc1ccnc(Cl)c1 [Example 167, (E)-N-((2-chloropyridin-4-yl)methyl)-1′-(3-(3,4-dichlorophenyl)allyl)-5-methoxyspiro[indoline-3,4′-piperidine]-1-carboxamide] | 6.9 µM | 184 nM | 33 µM |  | 
COc1ccc(/C=C/CN2CCC3(CC2)CN(C(=O)NCc2ccnc(Cl)c2)c2ccc(C(F)(F)F)cc23)cc1 [Example 168, (E)-N-((2-chloropyridin-4-yl)methyl)-1′-(3-(4-methoxyphenyl)allyl)-5-(trifluoromethyl)spiro[indoline-3,4′-piperidine]-1-carboxamide] | 33 µM | 266 nM | 3.3 µM |  | 
O=C(NCc1ccnc(Cl)c1)N1CC2(CCN(C/C=C/c3ccc(Cl)cc3)CC2)c2cc(S(F)(F)(F)(F)F)ccc21 [Example 169, (E)-1′-(3-(4-chlorophenyl)allyl)-N-((2-chloropyridin-4-yl)methyl)-5-(pentafluorosulfide)spiro[indoline-3,4′-piperidine]-1-carboxamide] |  | 467 nM |  | 47.8 µM | 3.3 µM
O=C(NCc1ccnc(Cl)c1)N1CC2(CCN(C/C=C/c3ccc(C(F)(F)F)cc3)CC2)c2cc(C(F)(F)F)ccc21 [Example 170, (E)-N-((2-chloropyridin-4-yl)methyl)-5-(trifluoromethyl)-1′-(3-(4-(trifluoromethyl)phenyl)allyl)spiro[indoline-3,4′-piperidine]-1-carboxamide] |  | 716 nM |  | 57.4 µM | 5.7 µM
O=C(NCc1ccnc(Cl)c1)N1CC2(CCN(C/C=C/c3ccc(Cl)c(Cl)c3)CC2)c2cc(Cl)cc(Cl)c21 [Example 171, (E)-5,7-dichloro-N-((2-chloropyridin-4-yl)methyl)-1′-(3-(3,4-dichlorophenyl)allyl)spiro[indoline-3,4′-piperidine]-1-carboxamide] | 69.1 µM | 20.9 nM | 7.6 µM |  | 
O=C(NCc1ccnc(Cl)c1)N1CC2(CCN(C/C=C/c3ccc(OC(F)(F)F)cc3)CC2)c2cc(C(F)(F)F)ccc21 [Example 172, (E)-N-((2-chloropyridin-4-yl)methyl)-1′-(3-(4-(trifluoromethoxy)phenyl)allyl)-5-(trifluoromethyl)spiro[indoline-3,4′-piperidine]-1-carboxamide] |  | 921 nM |  | 100 µM | 5.7 µM
O=C(NCc1ccnc(Cl)c1)N1CC2(CCN(C/C=C/c3ccc(Cl)cc3)CC2)c2c1ccc(F)c2C(F)(F)F [Example 173, (E)-1′-(3-(4-chlorophenyl)allyl)-N-((2-chloropyridin-4-yl)methyl)-5-fluoro-4-(trifluoromethyl)spiro[indoline-3,4′-piperidine]-1-carboxamide] |  | 465 nM |  | 100 µM | 5.7 µM
O=C(NCc1ccnc(Cl)c1)N1CC2(CCN(C/C=C/c3ccc(F)cc3)CC2)c2c(OC(F)(F)F)cccc21 [Example 174, (E)-N-((2-chloropyridin-4-yl)methyl)-1′-(3-(4-fluorophenyl)allyl)-4-(trifluoromethoxy)spiro[indoline-3,4′-piperidine]-1-carboxamide] |  | 1500 nM |  | 100 µM | 4.4 µM
